Results taken from US20080171706A1, “Anti-Adhesive Compounds to Prevent and Treat Bacterial Infections” (priority 2004, published 2008).

Target: T1, FimHtrF18 (Escherichia coli, UniProt P08191, N91S/S99N/V48A)
T1 construct: coding for the lectin domain of FimH (residues 1-158) with a C-terminal 6-histidine tag; made in house; host or cells: E. coli HB101 (lacking the fim operon), periplasmic extract, plasmid pPKL316
Test: biochemical
Assay type: binding, E. coli fecal (F18) strain
Procedure: To investigate if these variations reflect differences in sugar binding at the molecular level, the dissociation constants of a series of mannosides for the FimH lectin domain from a fecal (F18) and from a UPEC (Cl#4) strain were determined. […] For comparison, binding to FimHtrJ96 was also investigated. Both F18 and Cl#4 FimH lectin domains were cloned, expressed, and purified in the same way as FimHtrJ96 (Schembri et al., 2000). These two lectin domains differ from the lectin domain of FimHJ96 by substitutions Val27Ala, Asn70Ser and Ser78Asn. In addition, FimHCl#4 differs from the other two variants by a Gly73Glu substitution. […] Five different tri-mannosides corresponding to high-mannose substructures were synthesized, and their binding to FimHtrJ96, FimHtrF18 and FimHtrCl#4 measured using our [^3H]-mannose displacement assay (Table 3). Alpha-D-mannose binding was first directly measured for each of the FimH variants.
[^3H]alpha-D-mannose was obtained from Amersham. […] Syntheses of tri-mannosides was as reported earlier by Oscarson and co-workers (1993). Weighed amounts of tri-mannosides were dissolved in double distilled water to give stock solutions of 0.87 M man-(1,2)-man-(1,2)-man, 0.25 M man-(1,2)-man-(1,3)-man, 0.27 M man-(1,2)-man-(1,6)-man, 0.30 M man-(1,3)-man-(1,6)-man, 0.13 M man-(1,6)-man-(1,6)-man. Similarly, alkyl mannosides were dissolved in double distilled water to give stock solutions of 100 mM methyl mannoside, 59.8 mM ethyl mannoside, 45.9 mM propyl mannoside, 51.9 mM butyl mannoside, 17.3 mM pentyl mannoside, 20.8 mM hexyl mannoside, 15.3 mM heptyl mannoside, 15.2 mM octyl mannoside. pNPalphaMan and MeUmbalphaMan (6 mg each) were dissolved in 20 μl DMSO and diluted to 20 mM using double distilled water. Binding experiments were performed using six different concentrations of [^3H]-alpha-D-mannose (final concentrations 43.5 μM, 29.0 μM, 19.3 μM, 12.9 μM, 8.6 μM, 5.7 μM). FimHtrJ96 obtained by growing bacteria in minimal medium was used in all binding experiments. 180 μl protein at a concentration of about 500 nM was mixed with 20 μl of the radioactive ligand, and incubated at 37° C. for 20 min. To separate free ligand from bound, the mixture was rapidly filtrated through a Protran BA 85 Cellulose-nitrate filter (Schleicher & Schuell, Dassel, Germany), and washed once with 1 ml of ice-cold 1× PBS (phosphate buffered saline). Filter-bound radioactivity was measured by scintillation spectrometry within 24 hours. The displacement experiments were performed using six different concentrations (final concentrations in the range 0.0˜43.5 μM) of the inhibitor, in the presence of 43.5 μM [^3H]-alpha-D-mannose. 20 μl radioactive ligand, 20 μl inhibitor at decreasing concentrations, and 160 μl protein (500 nM) were mixed, and the experiments performed as above. All experiments were performed in duplicates. For determination of KD for α-D-mannose, a hyperbolic curve (y=P1x/(P2+x), where P2=KD) was fitted to the data. For the displacement experiments, the curve y=P1/(P2+x), where P2 is the concentration of the inhibitor displacing 50% of the labelled ligand, [I]0.5 was used instead. To calculate the inhibitor dissociation constant (KI) the Cheng & Prusoff equation (KI=[I]0.5/([L]/KL+1); KL is the constant of dissociation for the ligand) (Cheng and Prusoff, 1973), was used when both the concentration of the radioactive ligand (L) and the displacing agent (I) are in excess over the protein (LT>>PT;IT>>PT, T indicates total concentration). […] A plot of IT/((1−Y)*(LT/KL)−Y) against 1/Y gives a straight line with a slope of KI.

T1 sequence (P08191 22-179 V48A/N91S/S99N): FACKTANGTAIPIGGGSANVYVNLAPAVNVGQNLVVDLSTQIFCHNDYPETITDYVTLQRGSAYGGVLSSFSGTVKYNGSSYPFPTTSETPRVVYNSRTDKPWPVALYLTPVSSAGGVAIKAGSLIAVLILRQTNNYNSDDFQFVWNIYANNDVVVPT

In the case of `OC[C@H]1O[C@H](O)[C@@H](O)[C@@H](O)[C@@H]1O` [Mannose, α-D-mannose], the Kd (KD F18, Table 3, [3H]-mannose displacement assay (mannose measured directly)) is reported as 9.8 µM, the Kd (KD, mannose binding measured directly, FimHtrF18) is reported as 10 µM and the “ΔG° F18” value (Table 3, calculated from KD) is reported as -7.1 kcal/mol.
